Values quoted from earlier work in patent US20110105600A1, “SYNERGISTIC COMPOSITION OF (-)-HYDROXYCITRIC ACID WITH MONOTERPENE AND A METHOD TO ENHANCE SATIETY” (Glykon Technologies Group, LLC, priority 2009, published 2011).

Key:
[1] = 40 oz of Mediterranean-style lemonade containing 596 mg d-limonene
[2] = humans; dosage related to total body surface area
[3] = single large oral dose or two divided oral doses; animals fed a high-sugar diet
[4] = end of eight weeks; 2,800 mg/HCA per day in capsules
[5] = not given; remark: listed apart in the source

C=C(C)[C@H]1CC=C(C)CC1 [d-limonene]
time to maximal blood concentrations of perillyl alcohol [1]: one
duration of slight fatigue and eructation (oral dose of 100 mg/kg): four
duration of mild satiety (oral dose of 100 mg/kg (bolus of 7 grams for a 70 kg human)): 10 h

C=C(C)[C@@H]1CC=C(CO)CC1 [perillyl alcohol]
maximum tolerated dose [2]: 8400 mg/m^2 per day

CC(C)=CCC/C(C)=C/CO [geraniol]
acute oral LD50 (rat): 3,600 mg/kg body weight

O=C(O)CC(O)(C(=O)O)C(O)C(=O)O (single isomer, unassigned; (-)) [HCA, (−)-hydroxycitric acid]
reduction in food consumption [3]: ≥ 10%
decrease in appetite [4]: approximately 15.6%
decrease in food intake ([5]; 900 mg HCA dissolved in 100 ml tomato juice, 2-week period): 15-30%
reduction in appetite ([5]; 900 mg/day, two weeks): 15-30%
weight loss ([5]; 2-week period): no significant weight loss

CC(C)=CCC/C(C)=C\CO [nerol]
acute oral LD50 (rat): 4,500 mg/kg body weight
